Active and inactive are the calls of the source.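 Rule for the calls: active = fitted half-maximal concentration for changing reporter fluorescence at or below a set limit; inactive = the rest.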
Each compound was assayed against Citrate synthase, peroxisomal (Saccharomyces cerevisiae (strain ATCC 204508 / S288c)) (UniProt P08679) (assay: yeast TOR pathway CIT2-GFP reporter potency – flow cytometry, MLPCN hits, dose response (AID 2744)). Conditions: S. cerevisiae CIT2-GFP strain, 3 h, at 33 µM (top of the series).
Chain of Citrate synthase, peroxisomal (Saccharomyces cerevisiae (strain ATCC 204508 / S288c)) (P08679 whole entry, looked up): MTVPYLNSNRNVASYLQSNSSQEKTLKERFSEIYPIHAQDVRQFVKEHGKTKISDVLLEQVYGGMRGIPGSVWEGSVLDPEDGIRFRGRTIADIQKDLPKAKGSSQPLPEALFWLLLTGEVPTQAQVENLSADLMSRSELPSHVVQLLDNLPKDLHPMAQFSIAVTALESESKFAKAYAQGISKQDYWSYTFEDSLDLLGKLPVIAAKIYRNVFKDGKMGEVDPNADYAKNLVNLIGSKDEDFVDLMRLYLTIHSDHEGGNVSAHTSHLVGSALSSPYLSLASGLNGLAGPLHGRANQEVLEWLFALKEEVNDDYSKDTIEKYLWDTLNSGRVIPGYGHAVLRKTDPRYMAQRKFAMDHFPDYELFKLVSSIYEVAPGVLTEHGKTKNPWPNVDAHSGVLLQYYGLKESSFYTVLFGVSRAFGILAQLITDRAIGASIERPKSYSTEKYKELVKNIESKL

| Structure (SMILES) | GFP fluorescence, higher = induction |
| --- | --- |
| Nc1ccccc1C#CC(=O)c1ccccc1 | inactive |
| O=C(Oc1oc(-c2ccco2)nc1C=Nc1ccc(Cl)cc1)c1ccco1 | inactive |
| CCc1nc2ccccc2c(=O)n1NC(=O)c1c(O)c2cccc3c2n(c1=O)CCC3 | inactive |
| On1ccccc1=S | inactive |
| COc1ccc([C@]2(C(C)C)ON(c3ccccc3C(F)(F)F)C2=O)cc1 | inactive |
| C#CCOCCOCCOCCNc1nc(N2CCN(C(=O)CCCCCCCCCCNC(=O)[C@H](CCCCN)n3cc(C)nn3)CC2)nc(N2CCN(C(=O)CCCCCCCCCCNC(=O)[C@H](CCCN=C(N)N)n3cc(C[C@@H](C)CC)nn3)CC2)n1 | inactive |
| O=C(OCn1ncc(Br)c(Br)c1=O)c1c(F)cccc1F | inactive |
| CN(C)c1ccc(N=Cc2nc(-c3ccccc3)oc2OC(=O)c2cccc(Cl)c2)cc1 | inactive |
| Cc1cccnc1Nc1nc(-c2ccccn2)cs1 | inactive |
| Cc1cccc(C(=O)NC(=S)NNC(=O)Cc2ccccc2)c1 | inactive |
| Cc1cc(C)c(C)c(S(=O)(=O)ON2C(=O)c3ccccc3C2=O)c1C | inactive |
| Cc1nn(C)c(C)c1N1C(=O)c2cccc3c(Br)ccc(c23)C1=O | inactive |
| COc1cc(/C=C2/C(=O)ON=C2c2ccccc2)ccc1O | inactive |
| CCCCCn1c(=O)c(C(=O)Nc2nc3ccccc3[nH]2)c(O)c2ccccc21 | inactive |
| O=C1ON=C(c2ccccc2)/C1=C/c1ccc(-c2ccccc2[N+](=O)[O-])o1 | inactive |
| O=C1N(c2ccccc2C(F)(F)F)O[C@@]1(c1ccccc1)C1CCCCC1 | inactive |
| COc1ccccc1[C@@]1(C)ON(c2ccccc2C(F)(F)F)C1=O | inactive |
| Cc1cc(NC(=O)c2cccnc2Cl)ccc1NC(=O)c1cc2ccccc2o1 | inactive |
| CCOc1ccc(N/N=C(/C#N)C(N)=O)cc1 | inactive |
| O=C(Nc1nnc(-c2ccc3c(c2)CCCC3)o1)c1ccc(Cl)cc1Cl | inactive |
| O=C(Nc1nnc(-c2ccc(Cl)cc2)o1)c1ccccc1Br | inactive |
| O=C(C#Cc1ccccc1)c1cccc([N+](=O)[O-])c1 | inactive |
| O=C(/C=C/c1cccc([N+](=O)[O-])c1)c1ccc([N+](=O)[O-])o1 | inactive |
| Oc1c(CN2CCCCC2)cc(Br)c2cccnc12 | inactive |
| O=C(c1ccc([N+](=O)[O-])o1)N1CCN(c2nc3c(F)cc(F)cc3s2)CC1 | inactive |
| CCOc1ccccc1/C=c1\sc2ncnn2c1=O | inactive |
| O=C1c2ccccc2C(=O)N1OS(=O)(=O)c1ccccc1 | inactive |

Same assay, conditions: S. cerevisiae CIT2-GFP strain, flow cytometry fluorescence, 3 h

| Structure (SMILES) | EC50 [µM] |
| --- | --- |
| N=C1/C(=C\c2coc3ccccc3c2=O)C(=O)N=C2SC(c3ccncc3)=NN12 | 13 |

Reference: PubChem BioAssay AID2744 (NMMLSC, 2010)
